IC50 data for one molecule are collected here from ChEMBL document CHEMBL1201862, “PubChem BioAssay data set” (2004).

In experiment [1] the target is Neuropeptides B/W receptor type 1 (Homo sapiens, UniProt P48145). Briefly: human NPBW1 receptor blockade, IC50 – cell-based, fluorescence, dose response, set 6, late-stage follow-up (AID 588583). The experiment is classed as functional.
In experiment [2] the target is Melanin-concentrating hormone receptor 1 (Homo sapiens, UniProt Q99705). Briefly: Late-stage fluorescence-based counterscreen for antagonists of the G-protein coupled receptor 7 (GPR7): cell-based dose response assay to identify antagonists of the melanin-concentrating hormone receptor 1 (MCHR1) Set 6. The experiment is classed as functional.

Activity calls are given as the source filed them. Cut-off read from the data, not from the text of the source: active = IC50 of 10 µM or less and inactive = more.

Sequence of Melanin-concentrating hormone receptor 1 (Q99705 whole entry): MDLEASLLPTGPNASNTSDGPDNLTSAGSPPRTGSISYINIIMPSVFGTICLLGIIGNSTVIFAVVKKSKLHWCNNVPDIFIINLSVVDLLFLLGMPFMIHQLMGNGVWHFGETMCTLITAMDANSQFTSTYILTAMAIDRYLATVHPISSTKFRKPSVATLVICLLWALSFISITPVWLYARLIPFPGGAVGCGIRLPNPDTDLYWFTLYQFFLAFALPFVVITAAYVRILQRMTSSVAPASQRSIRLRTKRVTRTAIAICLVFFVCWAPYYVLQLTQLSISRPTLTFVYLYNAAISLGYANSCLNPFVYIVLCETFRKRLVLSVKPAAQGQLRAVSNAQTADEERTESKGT
Sequence of Neuropeptides B/W receptor type 1 (P48145 whole entry): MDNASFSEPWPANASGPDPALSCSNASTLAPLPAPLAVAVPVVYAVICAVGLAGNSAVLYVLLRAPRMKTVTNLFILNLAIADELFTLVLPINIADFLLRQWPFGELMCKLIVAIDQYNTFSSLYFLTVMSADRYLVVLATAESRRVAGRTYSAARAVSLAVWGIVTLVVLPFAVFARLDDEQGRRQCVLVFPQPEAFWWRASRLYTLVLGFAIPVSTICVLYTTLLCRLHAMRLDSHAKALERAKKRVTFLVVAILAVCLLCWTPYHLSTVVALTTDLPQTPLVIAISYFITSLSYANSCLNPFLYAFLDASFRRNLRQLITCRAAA

In the case of `N#CC(c1c(F)cccc1F)c1c(Cl)cnn(Cc2cccc3ccccc23)c1=O` (configuration not stated), the IC50 in experiment [1] and in experiment [2] was 1.61 µM (active) each time.
